Experimental data from publication PMC13198257, “An aerosolized dual-action autotaxin inhibitor-PPARγ agonist for the treatment of pulmonary fibrosis” (Cell Reports Medicine, 2026).
“Also recorded” adds a separate entry of the source. One block for each compound: values may come before it.

Experiments:
[1] = Cytotoxicity in HepG2 hepatocytes; format: cell-based; conditions: human, HepG2 cells
hERG = hERG (Homo sapiens, UniProt Q12809); test: hERG inhibition; format: biochemical
[2] = Mouse metabolic clearance and half-life in vitro
[3] = AMP membrane permeability; format: in vitro ADME; conditions: 10 μΜ
in vitro = conditions: mouse
ATX [4] = target: T1, ATX (Homo sapiens, UniProt Q13822); test: Amplex Red assay: ATX inhibitory activity in vitro; format: biochemical; conditions: for IC50: Amplex Red assay; for IC50 / Inhibition of ATX enzymatic activity: in vitro; for ATX activity, fold lower than that of TGZ: ratio of IC50; for % inhibition of ATX: at 100 μΜ, Table S1
T1 construct: purchased Sino Biological 11308-H07H
Protocol: (§1) ATX inhibitory activity in vitro of examined compounds was assessed with the Amplex Red assay,[32]^,[35]^,[36] as recently published in detail.[37] The assay was done in Amplex Red Assay buffer (Tris 50 mM, CaCl2 5 mM, pH 8). Briefly, 50 μL of increasing concentrations of each compound were placed in separate wells of a black 96-well plate. […] 50 μL of the LPC-containing assay buffer (200 μM) were added to the wells and incubated for 30 min at 37°C to allow the enzyme to initially interact with its substrate. 50 μL of the detection mix (Amplex Red 200 μM, choline oxidase 0.4 U/mL, horseradish peroxidase 4 U/mL) were added to the plate wells. Fluorescence was measured in a Tecan M200 Fluorimeter using excitation at 530 nm and reading at 590 nm, every 5 min for 30 min. The velocity of the reaction and the remaining ATX activity were calculated at the linear phase of the reaction. Dose-response inhibition graphs were plotted with GraphPad Software.

ATX [5] = target: T1, ATX; test: Mode of ATX inhibition, Lineweaver-Burk plots (various LPC concentrations); format: biochemical
Protocol: To determine the mode of inhibition of ATX, various concentrations of TGZ, compound 5 and EL244 were tested against various LPC concentrations. Specifically, TGZ was tested against 6.25, 12.5, 25, 50 and 100 μM LPC, compound 5 was tested against 3.125, 6.25, 12.5, 25, 50 and 100 μM LPC, while EL244 was tested against 25, 50, 100 and 150 μM LPC. Lineweaver–Burk graphs depicting the reciprocal of velocity (1/V) against the reciprocal of substrate concentration (1/S) were plotted with GraphPad Software.

[6] = test system: choline oxidase and horseradish peroxidase; test: Interference with the 2nd and 3rd reaction of the Amplex Red assay; format: biochemical
Protocol: as §1
Figure S3. Kinetic analysis of ATX inhibition. Related to Figures 3 and 4
(B) Kinetics for the second (oxidation of choline catalysed by choline oxidase) and third reaction (the conversion of the
Amplex substrate to the fluorescent resorufin catalysed by horseradish peroxidase, HRP) of the Amplex Red Lyso-
phospholipase D assay for representative compounds (TGZ, 4, 5 and EL244). The first reaction includes the conversion of
LPC to LPA catalysed by ATX.
Kinetic graphs are indicative of three technical replicates. […]

PPARγ = target: T2, PPARγ (Homo sapiens, UniProt P37231); test: PPARγ Gal4 hybrid reporter gene assay; format: cell-based; conditions: Gal4-hybrid reporter, HEK293T cells
T2 construct: expressed in transfected cells; host or cells: HEK293T
T2 sequence (P37231 238-503 limits assumed): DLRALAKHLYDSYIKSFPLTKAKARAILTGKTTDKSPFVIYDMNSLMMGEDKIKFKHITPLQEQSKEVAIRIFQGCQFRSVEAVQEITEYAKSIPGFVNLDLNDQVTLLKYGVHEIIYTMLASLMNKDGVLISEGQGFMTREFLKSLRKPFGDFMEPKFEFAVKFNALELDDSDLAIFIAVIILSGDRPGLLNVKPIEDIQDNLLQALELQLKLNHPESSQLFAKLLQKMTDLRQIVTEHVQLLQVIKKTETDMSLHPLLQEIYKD
Protocol: All well-established assays were performed following straightforward methodology.[49] Plasmids pFA-CMV-hPPARα-LBD, pFA-CMV-hPPARγ-LBD and pFA-CMV-hPPARδ-LBD code for the hinge region and ligand binding domain of the canonical isoform of the respective nuclear receptor and were used to express the Gal4 hybrid receptors. pFR-Luc (Stratagene, La Jolla, CA, USA) and pRL-SV40 (Promega, Madison, WI, USA) were used as Gal4-responsive reporter and as internal control in the hybrid reporter gene assays, respectively. HEK293T cells were seeded in 96-well plates (3×10^4 cells/well). Before transfection, the medium was changed to Opti-MEM without supplements, and transient transfection with the plasmids pFR-Luc, pRL-SV40, and one pFA-CMV-NR-LBD clone was carried out using Lipofectamine LTX reagent (Invitrogen, Carlsbad, CA, USA) according to the manufacturer’s protocol. […] Normalisation of transfection efficiency and cell growth was performed by dividing firefly luminescence by Renilla luminescence and multiplying the result by 1000, yielding relative light units (RLU). Fold activation was obtained by dividing the mean RLU of the test compound by the mean RLU of the untreated control.

hERG, sequence (Q12809 whole entry): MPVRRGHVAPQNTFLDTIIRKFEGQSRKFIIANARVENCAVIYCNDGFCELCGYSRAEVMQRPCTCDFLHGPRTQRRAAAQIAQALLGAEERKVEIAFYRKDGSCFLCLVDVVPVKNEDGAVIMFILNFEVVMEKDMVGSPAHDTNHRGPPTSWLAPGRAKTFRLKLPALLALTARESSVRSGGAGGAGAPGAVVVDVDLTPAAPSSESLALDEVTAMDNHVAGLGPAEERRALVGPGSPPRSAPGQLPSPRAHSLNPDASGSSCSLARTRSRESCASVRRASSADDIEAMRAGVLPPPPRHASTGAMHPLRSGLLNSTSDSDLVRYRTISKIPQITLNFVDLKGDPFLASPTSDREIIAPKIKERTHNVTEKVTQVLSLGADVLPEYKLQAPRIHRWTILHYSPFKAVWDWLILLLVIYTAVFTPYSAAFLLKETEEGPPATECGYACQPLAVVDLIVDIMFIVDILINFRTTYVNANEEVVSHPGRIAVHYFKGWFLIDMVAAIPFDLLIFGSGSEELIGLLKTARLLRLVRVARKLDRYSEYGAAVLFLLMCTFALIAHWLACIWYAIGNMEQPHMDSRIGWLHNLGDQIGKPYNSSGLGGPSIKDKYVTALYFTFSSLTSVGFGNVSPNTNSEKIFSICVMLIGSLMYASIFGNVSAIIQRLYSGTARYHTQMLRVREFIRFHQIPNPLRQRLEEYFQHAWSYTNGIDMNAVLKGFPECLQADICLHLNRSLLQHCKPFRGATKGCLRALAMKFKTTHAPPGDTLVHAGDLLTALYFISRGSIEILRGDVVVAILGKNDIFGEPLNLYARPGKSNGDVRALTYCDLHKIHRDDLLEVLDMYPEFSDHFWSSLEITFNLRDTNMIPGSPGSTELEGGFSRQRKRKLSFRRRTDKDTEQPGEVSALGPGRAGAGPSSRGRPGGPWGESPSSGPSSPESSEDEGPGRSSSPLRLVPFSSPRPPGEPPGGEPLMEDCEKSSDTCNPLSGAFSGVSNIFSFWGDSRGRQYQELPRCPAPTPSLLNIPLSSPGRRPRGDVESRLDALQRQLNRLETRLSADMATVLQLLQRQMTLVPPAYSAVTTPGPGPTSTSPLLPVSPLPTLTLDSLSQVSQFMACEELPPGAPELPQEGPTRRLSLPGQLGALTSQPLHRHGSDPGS

half-life at 0.1 μM [2]: < 10 min
microsomal CLint at 0.1 μM [2]: 766 µL/min/mg
Structure (SMILES): O=C(CCN1CCN(C(=O)OCc2cc(Cl)cc(Cl)c2)CC1)c1ccc2[nH]c(=O)oc2c1 [PF-8380, reference compound]
CC50 [1]: > 100000 nM
IC50 (hERG): 500 nM

IC50 (ATX [4]): 17800 nM
Structure (SMILES): Cc1c(C)c2c(c(C)c1O)CCC(C)(COc1ccc(/C=C3/SC(=O)N(Cc4ccc(F)cc4)C3=O)cc1)O2 (stereo not drawn) [Compound 3, (E)-3-(4-fluorobenzyl)-5-(4-((6-hydroxy-2,5,7,8-tetramethylchroman-2-yl)methoxy)benzylidene)thiazolidine-2,4-dione]

IC50 (ATX [4]): 2000 nM
ATX activity, fold lower than that of TGZ (ATX [4]): 4 fold
Structure (SMILES): N#Cc1sc(NCCOc2ccc(/C=C3/SC(=O)NC3=O)cc2)nc1-c1ccc(F)cc1 [Compound 1, (E)-2-((2-(4-((2,4-dioxothiazolidin-5-ylidene)methyl)phenoxy)ethyl)amino)-4-(4-fluorophenyl)thiazole-5-carbonitrile]

IC50 (ATX [4]): 2000 nM
ATX activity, fold lower than that of TGZ (ATX [4]): 4 fold
Structure (SMILES): O=C1NC(=O)/C(=C\c2ccc(OCCN3CCN(C(=O)OCc4cc(Cl)cc(Cl)c4)CC3)cc2)S1 [Compound 2, 3,5-Dichlorobenzyl (E)-4-(2-(4-((2,4-dioxothiazolidin-5-ylidene)methyl)phenoxy)ethyl)piperazine-1-carboxylate]

Continued, compound first:

Structure (SMILES): COC(=O)c1ccc2c(c1)NC(=O)/C2=C(\Nc1ccc(N(C)C(=O)CN2CCN(C)CC2)cc1)c1ccccc1 [Nintedanib, reference compound]
AMP [3]: 7.8e-07 cm/s
CC50 [1]: 4000 nM
IC50 (hERG): 4000 nM
half-life at 0.1 μM (in vitro): 58 min
microsomal CLint at 0.1 μM [2]: 122 µL/min/mg

Structure (SMILES): CN(CCOc1ccc(CC2SC(=O)NC2=O)cc1)c1ccccn1 (stereo not drawn) [RGZ, rosiglitazone, reference compound]
IC50 (ATX [4]): > 100000 nM
Inhibition of ATX enzymatic activity (ATX [4]): not to inhibit ATX enzymatic activity

Structure (SMILES): CCc1ccc(CCOc2ccc(CC3SC(=O)NC3=O)cc2)nc1 (stereo not drawn) [PGZ, pioglitazone, reference compound]
IC50 (ATX [4]): > 100000 nM
Inhibition of ATX enzymatic activity (ATX [4]): not to inhibit ATX enzymatic activity

Structure (SMILES): COc1cc(-c2ccc(N=Nc3ccc4c(S(=O)(=O)O)cc(S(=O)(=O)O)c(N)c4c3O)c(OC)c2)ccc1N=Nc1ccc2c(S(=O)(=O)O)cc(S(=O)(=O)O)c(N)c2c1O [CSB, Chicago Sky Blue 6B, reference compound]
IC50 (ATX [4]): 1600 nM
% inhibition of ATX (ATX [4]): fully inhibited ATX activity
% inhibition of ATX (ATX [4]; listed as 425): 99.21%

Structure (SMILES): Cc1c(C)c2c(c(C)c1O)CCC(C)(COc1ccc(CC3SC(=O)NC3=O)cc1)O2 (stereo not drawn) [TGZ, troglitazone, reference compound]
IC50 (ATX [4]): 530 nM
% inhibition of ATX (ATX [4]): fully inhibited ATX activity
% inhibition of ATX (ATX [4]; listed as 1467): 99.17%
Mode of ATX inhibition (ATX [5]): non-competitive
CC50 [1]: 34000 nM

Structure (SMILES): N#Cc1sc(NCCOc2ccc(CC3SC(=O)NC3=O)cc2)nc1-c1ccc(F)cc1 (stereo not drawn) [Compound 4, 2-((2-(4-((2,4-dioxothiazolidin-5-yl)methyl)phenoxy)ethyl)amino)-4-(4-fluorophenyl)thiazole-5-carbonitrile]
IC50 (ATX [4]): 940 nM
Interference on the 2nd and 3rd steps of the Amplex Red assay [6]: Minimal interference; also recorded: not involved at all in the second and third reaction
EC50 (PPARγ): 1000 nM
PPARγ fold activ. (max. activation) (PPARγ): 5.6 ± 0.5 fold
